According to US11534410B2, “Amphotericin loaded PEGylated lipid nanoparticles and methods of use” (University of Mississippi, priority 2018, dated 2022):
≈ marks a conversion by molar mass, not a printed value. Like-named read-outs stand apart in the source and are kept apart here.

Experiments:
[1] = Lipid screening: solubility/dispersibility of amphotericin B in lipids; assay type: physicochemical
Procedure: Lipid screening is a crucial step, in order to select the lipids with the highest drug solubility and/or dispersibility. Amphotericin B (1 mg) was added to the lipid at 75° C., upon stirring at 2000 rpm for 10 mins, and observed with naked eye as well as under the microscope for precipitation/aggregation. Amphotericin B has a relatively higher solubility at elevated temperature in Precirol™ ATO 5 (glyceryl palmitostearate) in comparison with the other lipids, such as Compritol® ATO 888 (glyceryl behenate), stearic acid, glyceryl mono stearate (GMS) and glyceryl di-stearate (Table 1). […] While screening liquid lipids, amphotericin B better dispersed/solubilized in castor oil (Table 1).

[2] = test system: retinal pigmented epithelial cells (ATCC ARPE-19); assay type: cell-based
Procedure: In vitro cytotoxicity evaluation: The placebo (no Amphotericin B) formulations PEG-NLC and NLC alone were tested for cytotoxicity towards the retinal pigmented epithelial cells (ATCC ARPE-19) in a concentration range of 0.03%-1%. […] They were not cytotoxic to ARPE-19 cells up to a highest concentration of 30 μg/mL, indicating a high therapeutic index.

[3] = test system: wild type (WT) Candida albicans (ATCC90028); assay: Microdilution (CLSI) and recovery assay, antifungal/fungicidal activity; assay type: cell-based; conditions: for MFC: recovery assay
Procedure: FIG. 5: Antifungal activity of amphotericin B formulations. […] Each formulation was tested at 5.0-0.01 μg/ml with 2-fold dilutions. Color bar represents relative growth. A. Antifungal activity on Day 1 post AmB formulation in wild type (WT) Candida. B. & C. Antifungal activity on Day 10 post AmB formulation in WT and AmB resistant Candida strains, respectively. Each experiment was performed in triplicates.
In vitro fungicidal activity: A microdilution experiment was performed in wild type (WT) Candida albicans (ATCC90028) and Aspergillus fumigatus (ATCC 204305) as per Clinical & Laboratory Standards Institute (CLSI) protocols^37-39. […] Recovery assay was performed for fungicidal activity at both day 1 and day 10 post preparation.

[4] = test system: AmB resistant Candida strain (ATCC 200955); assay: Microdilution and fungicidal assay, AmB resistant strain; assay type: cell-based, Candida albicans; conditions: Day10
Procedure: Each formulation was tested at 5.0-0.01 μg/ml with 2-fold dilutions. […] B. & C. Antifungal activity on Day 10 post AmB formulation in WT and AmB resistant Candida strains, respectively. Each experiment was performed in triplicates.

[5] = cited from earlier work
[6] = amphotericin B (1 mg) added to the solid lipid at 75° C., 2000 rpm for 10 mins

CCCCCCCCCCCCCC(=O)OCC(COC(=O)CCCCCCCCCCCCC)OC(=O)CCCCCCCCCCCCC [Dynasan 114, glyceryl trimyristate]
Solubility/Dispersion (Solid Lipid) [1, 6]: −

CCCCCCCCCCCCCCCC(=O)OCC(COC(=O)CCCCCCCCCCCCCCC)OC(=O)CCCCCCCCCCCCCCC [Dynasan 116, glyceryl tripalmitate]
Solubility/Dispersion (Solid Lipid) [1, 6]: −

Castor Oil
Solubility/Dispersion (Liquid Lipid) [1]: +

CCCCCCCCCCCCCCCCCC(=O)OCC(O)CO (stereo not shown) [GMS, glyceryl mono stearate]
Solubility/Dispersion (Solid Lipid) [1]: −

benzalkonium chloride
IC50 (cytotoxicity) [2]: 3.9 µg/mL

CCCCCCCC/C=C\CCCCCCCC(=O)O [Oleic acid]
Solubility/Dispersion (Liquid Lipid) [1]: −

Sesame Oil
Solubility/Dispersion (Liquid Lipid) [1]: −

Soy bean oil
Solubility/Dispersion (Liquid Lipid) [1]: −

C[C@@H]1[C@H](O)[C@@H](C)/C=C/C=C/C=C/C=C/C=C/C=C/C=C/[C@H](O[C@@H]2O[C@H](C)[C@@H](O)[C@H](N)[C@@H]2O)C[C@@H]2O[C@](O)(C[C@@H](O)C[C@@H](O)[C@H](O)CC[C@@H](O)C[C@@H](O)CC(=O)O[C@H]1C)C[C@H](O)[C@H]2C(=O)O [AmB, Amphotericin B]
MIC ([3]; Day1 post preparation): 0.62/0.62 μg/mL | MFC ([3]; Day1 post preparation): 1.25/1.25 μg/mL | MIC ([3]; Day10 post preparation): 0.62/0.62 μg/mL | MFC ([3]; Day10 post preparation): 1.25/1.25 μg/mL | MFC [4]: 2.5 µg/mL (≈ 2.71 µM) | MIC [4]: 2.5 µg/mL (≈ 2.71 µM) | log P [5]: 0.8 | solubility in water, methanol, and ethanol [5]: practically insoluble
